# Test results from article PMC10049354, “Anti-Inflammatory Effects and Photo- and Neuro-Protective Properties of BIO203, a New Amide Conjugate of Norbixin, in Development for the Treatment of Age-Related Macular Degeneration (AMD)” (International Journal of Molecular Sciences, 2023).
# What was measured:
# NF-κB = NF-κB transactivation assay induced by A2E; assay type: cell-based, pig; conditions: compound 20 μM; A2E 20 μM; p < 0.05
# Method: (§1) Transactivation assays were performed as previously described. Briefly, RPE cells were plated in DMEM 2% FCS at a density of 6 × 10^4 cells/cm^2. The next day transfections using the Cignal Reporter Assay Kits for PPAR, RXR, AP-1, and NF-κB were performed with Lipofectamine and Plus Reagent in serum-free medium. Three hours after the transfection, A2E and/or BIO203, both at 20 μM, were added to the culture medium for 24 h. Luciferase activity was measured using the Dual-Luciferase Reporter Assay System and with a luminometer (Infinite M1000 from Tecan, Mannedorf, Switzerland). At least 3 independent transfections were performed in triplicate for each condition.
# [1] = tested on: albino rats exposed to blue-light-induced photoreceptor degeneration; test: Blue-light damage (BLD) study in albino rats: ERG; assay type: in vivo, rat; conditions: for effect on visual function (ERG A-wave and B-wave): four IP administrations; for efficacy dose in the rat model of BLD: IP
# Method: The ERG in rats was performed using the electrophysiological system RETI-animal® from Roland Consult. ERG was recorded on both eyes from overnight dark-adapted animals. Rats were anesthetized by an intramuscular injection of a mix of Rompun® (xylazine)/Imalgene® (ketamine) before ERG measurement. Ten to fifteen minutes before measurement, one drop of Mydriaticum® (0.5% tropicamide) was instilled for pupillary dilatation. The A-wave and B-wave implicit times (ms) and amplitudes (µV) were measured for each ERG. The B-wave amplitude (value and %) was given as informative data. ERG parameters: Ganzfeld Q450C, Color: white maximum, Maximum intensity: 3 cd/m^2 (0 dB); Duration 0.24 ms; number of flashes: 1, Filter: 50 Hz, Impedance threshold: 50 kΩ. For scotopic ERGs, the A-wave amplitudes were measured from the baseline to the peak of the negative potential, whereas B-wave amplitudes were measured from the trough of the A-wave to the peak of the positive potential. The recordings obtained from these analyses were tabulated and normalized (%) for each eye. Group means, standard deviation, and median values were calculated, considering each eye from one animal as a separate value. ERG recordings in mice were performed as previously described.
# (§2) Sixty-four animals were selected based on good health and on scotopic electroretinogram performed before induction when the A-wave amplitude of both eyes was in the range of the global mean (all animals) of A-wave amplitude ± 1.96 SD. Animals were then randomized into the study groups using a macro function in Excel® software based on the A-wave amplitude of both eyes (mean value). On Day 0, BIO203, negative controls, and comparator (N-tert-Butyl-a-phenylnitrone (PBN)) were intraperitoneally injected using a 25 G needle in rats that have been dark-adapted for 36 h. Individually housed rats were then exposed for 6 h (±5 min) to a continuous blue, fluorescent light (400–540 nm) in clear plastic cages. After exposure and administration, the rats were placed in a dark room for 24 h (±1 h) and then were returned to rearing cyclic light conditions.
# RXR = RXR transactivation assay induced by A2E; assay type: cell-based, pig; conditions: compound 20 μM; A2E 20 μM; porcine RPE cells
# Method: as §1
# [2] = tested on: albino rats exposed to blue-light-induced photoreceptor degeneration; test: Blue-light damage (BLD) study in albino rats: retinal histology (photoreceptor layers); assay type: in vivo, rat; conditions: for preservation of retinal structure (photoreceptor layers): four IP administrations, 6 h blue-light exposure
# Method: At the end of the measurement period on Day 7, rats were euthanized by an intraperitoneal injection of pentobarbital. Immediately after euthanasia, both eyeballs were sampled, fixed in Davidson’s solution, and processed for histology. Sections (5 to 7 µm thick) were performed along the vertical meridian and stained with Haematoxylin/Eosin stain. The vertical meridian included the optic nerve. […] The thickness of the outer nuclear layer was measured on each point. […] Histology and photoreceptor counting in mice were performed as previously described.
# as §2
# VEGF = tested on: VEGF; parameters: method as in PMID 34544906; conditions: norbixin at 20 mM (so in the source); cited from earlier work
structure (smiles),measurement,setting,value
COC1CCCN(C(=O)/C=C/C(C)=C/C=C/C(C)=C/C=C/C=C(C)/C=C/C=C(C)\C=C\C(=O)O)C1 (centres unmarked) [BIO203],change of NF-κB transactivation induced by A2E,NF-κB,−69.4%
same,effect on visual function (ERG A-wave and B-wave),"[1]; 5 mg/kg, ERG 7 days after blue light",no significant effect
same,effect on visual function (ERG A-wave and B-wave),"[1]; 10 mg/kg, ERG 7 days after blue light",no significant effect
same,effect on visual function (ERG A-wave and B-wave),"[1]; 25 mg/kg, ERG 7 days after blue light, p < 0.0001",protective effect
same,efficacy dose in the rat model of BLD,[1],25 mg/kg
same,inhibition of RXR transactivation induced by A2E,RXR,did not inhibit
same,preservation of retinal structure (photoreceptor layers),[2]; 5 mg/kg,did not observe neuroprotection
same,preservation of retinal structure (photoreceptor layers),[2]; 10 mg/kg,did not observe neuroprotection
same,preservation of retinal structure (photoreceptor layers),"[2]; 25 mg/kg, p < 0.0001",partially preserved the retinal structure
same,neuroprotective effect compared to vehicle (preliminary experiment),"[2]; BIO203 at 2.5 mg/mL (so in the source), IP, rat BLD",limited neuroprotective effect
"CC(=C/C=C/C(C)=C/C=C/C=C(C)/C=C/C=C(C)/C=C/C(=O)O)/C=C/C(=O)O [norbixin, 9′-cis-norbixin]",effect on visual function (ERG A-wave and B-wave),"[1]; 50 mg/kg, positive controls",protected the visual functions
same,efficacy dose in the rat model of BLD,[1],50 mg/kg
same,preservation of retinal structure (photoreceptor layers),"[2]; 50 mg/kg, p < 0.0001",partially preserved the retinal structure
same,effect on VEGF mRNA expression,VEGF,significantly reduced
